Patent US5332726A, “Antithrombotic peptides and pseudopeptides” (Rhone-Poulenc Rorer Pharmaceuticals Inc., priority 1992, dated 1994)
pIC50: −log10 of the molar value. Like-named read-outs stand apart in the source and are kept apart here. Non-standard residues stand in square brackets, D forms with d. Residues, ends and D or L forms follow the SMILES beside them. NMeV = CN[C@H](C(=O)O)C(C)C; Orn = NCCC[C@H](N)C(=O)O; Aun = NCCCCCCCCCCC(=O)O; Ava = NCCCCC(=O)O; Sar = CNCC(=O)O

Experiments:
[1] = target: thrombin-stimulated platelets (Homo sapiens, UniProt P05106+P08514); assay: Fibrinogen-Binding Assay (125I-fibrinogen binding to platelets)
[2] = target: fixed activated platelets (Homo sapiens, UniProt P05106+P08514); assay: Platelet Aggregation Assay (fibrinogen-mediated aggregation of fixed-activated platelets); assay type: cell-based
How it was run: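 Activated platelets fixed with 0.50% paraformaldehyde for 30 min at room temperature. They were then pre-incubated 1 min with test compound before aggregation was triggered by human fibrinogen at 250 μg/ml final. Aggregation recorded on an aggregometer.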

platelet aggregation = conditions: cited from earlier work
[3] = 125I-fibrinogen 0.176 μmol/liter, thrombin-stimulated platelets; read-out: Inhibition of 125I-Fibrinogen Binding to Platelets IC50
[4] = fixed activated platelets, human fibrinogen 250 μg/ml; read-out: Inhibition of Fibrinogen Mediated Platelet Aggregation IC50
[5] = read-out: Inhibition of Fibrinogen Mediated Platelet Aggregation % inhibition at 25 μM
[6] = read-out: Inhibition of Fibrinogen Mediated Platelet Aggregation % inhibition at 100 μM
[7] = read-out: Inhibition of 125I-Fibrinogen Binding to Platelets: Inhibited <50% at 50 μg/ml

fixed activated platelets, sequence (P08514 32-1039): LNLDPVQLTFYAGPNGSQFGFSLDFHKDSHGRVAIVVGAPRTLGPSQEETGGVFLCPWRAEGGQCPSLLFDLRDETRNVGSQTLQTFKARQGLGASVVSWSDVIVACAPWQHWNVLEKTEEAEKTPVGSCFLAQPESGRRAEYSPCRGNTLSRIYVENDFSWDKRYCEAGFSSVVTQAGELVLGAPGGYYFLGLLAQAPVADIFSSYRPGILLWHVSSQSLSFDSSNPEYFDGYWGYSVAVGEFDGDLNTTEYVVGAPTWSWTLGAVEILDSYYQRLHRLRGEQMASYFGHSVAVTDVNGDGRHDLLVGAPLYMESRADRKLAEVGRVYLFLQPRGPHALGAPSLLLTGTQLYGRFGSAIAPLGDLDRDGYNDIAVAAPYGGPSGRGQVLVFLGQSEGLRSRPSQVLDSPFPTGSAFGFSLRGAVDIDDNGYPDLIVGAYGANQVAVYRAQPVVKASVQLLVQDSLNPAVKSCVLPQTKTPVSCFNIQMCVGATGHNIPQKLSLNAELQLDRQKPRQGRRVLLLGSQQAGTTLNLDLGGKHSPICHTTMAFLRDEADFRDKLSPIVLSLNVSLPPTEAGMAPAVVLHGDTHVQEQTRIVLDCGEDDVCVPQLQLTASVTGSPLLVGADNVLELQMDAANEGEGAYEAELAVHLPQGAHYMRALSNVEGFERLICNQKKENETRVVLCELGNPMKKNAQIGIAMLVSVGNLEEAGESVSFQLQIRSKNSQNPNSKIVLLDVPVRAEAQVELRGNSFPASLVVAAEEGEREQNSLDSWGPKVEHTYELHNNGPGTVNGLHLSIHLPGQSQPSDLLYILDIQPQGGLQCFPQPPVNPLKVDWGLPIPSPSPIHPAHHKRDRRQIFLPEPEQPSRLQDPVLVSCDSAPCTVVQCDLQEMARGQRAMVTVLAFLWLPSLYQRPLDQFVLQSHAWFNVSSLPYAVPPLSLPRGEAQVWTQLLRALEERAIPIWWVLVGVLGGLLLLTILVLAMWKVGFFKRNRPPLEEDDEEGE
fixed activated platelets, sequence (P05106 27-788): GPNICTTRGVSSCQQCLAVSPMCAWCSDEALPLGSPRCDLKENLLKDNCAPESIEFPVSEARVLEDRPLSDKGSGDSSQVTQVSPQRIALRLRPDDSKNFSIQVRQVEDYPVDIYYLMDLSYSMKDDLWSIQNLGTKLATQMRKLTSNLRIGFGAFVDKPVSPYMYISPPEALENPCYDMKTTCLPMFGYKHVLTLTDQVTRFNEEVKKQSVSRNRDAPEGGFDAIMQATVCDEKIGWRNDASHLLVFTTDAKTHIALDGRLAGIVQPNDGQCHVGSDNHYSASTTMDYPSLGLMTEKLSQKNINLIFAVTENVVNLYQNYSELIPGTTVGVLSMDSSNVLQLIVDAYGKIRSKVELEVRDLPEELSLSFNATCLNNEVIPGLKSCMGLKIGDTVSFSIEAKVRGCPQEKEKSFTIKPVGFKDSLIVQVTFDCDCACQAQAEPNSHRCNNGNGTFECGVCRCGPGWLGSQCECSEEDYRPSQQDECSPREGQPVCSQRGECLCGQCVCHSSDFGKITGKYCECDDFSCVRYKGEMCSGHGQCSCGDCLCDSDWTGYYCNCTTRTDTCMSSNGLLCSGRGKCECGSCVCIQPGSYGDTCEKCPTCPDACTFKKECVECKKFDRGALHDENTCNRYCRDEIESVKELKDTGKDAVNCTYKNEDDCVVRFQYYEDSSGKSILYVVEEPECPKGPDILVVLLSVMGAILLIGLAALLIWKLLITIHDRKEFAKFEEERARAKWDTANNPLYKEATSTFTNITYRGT
thrombin-stimulated platelets, sequence (P08514 32-1039): as the sequence (P08514 32-1039) above
thrombin-stimulated platelets, sequence (P05106 27-788): as the sequence (P05106 27-788) above

Molecule | pIC50 [1, 3] | pIC50 [2, 4] | inhibition at 25 µM [2, 5] [%] | inhibition at 100 µM [2, 6] [%] | also measured
CC(C)C[C@H](NC(=O)[C@H](CC(=O)O)NC(=O)CCCCCCCCNC(=N)N)C(=O)O [9-guanidinononanoyl-L-aspartyl-L-leucine] | 6.40 | 6.23 | 95 | – | –
CC(C)[C@H](NC(=O)[C@H](CC(=O)O)NC(=O)CCCCCCCCNC(=N)N)C(=O)O [9-guanidinononanoyl-L-aspartyl-L-valine] | 6.70 | 5.77 | 96 | – | –
CC(C)[C@H](NC(=O)[C@H](CC(=O)O)NC(=O)CCCCCCCCCn1ccnc1)C(=O)O [10-(Imidazol-1-yl)decanoyl-L-aspartyl-L-valine] | 4.70 | < 4.60 | 45 | – | –
CC(C)[C@H](NC(=O)[C@H](CC(=O)O)NC(=O)C=CCCCCCCCNC(=N)N)C(=O)O [10-Guanidinodec-2-enoyl-L-aspartyl-L-valine] | 4.92 | 5.06 | 77 | – | –
CC(C)[C@H](NC(=O)[C@H](CC(=O)O)NC(=O)CCCCCCCCCNC(=N)N)C(=O)O [10-Guanidinodecanoyl-L-aspartyl-L-valine] | 5.60 | 4.99 | 77 | – | –
CC(C)[C@H](NC(=O)[C@H](CC(=O)O)NC(=O)CCCCCCCCCCN)C(=O)O [11-Aminoundecanoyl-L-aspartyl-L-valine] (H-[Aun]-Asp-Val-OH) | 6.24 | 5.77 | 0.98 | – | –
CC(C)[C@H](NC(=O)[C@H](CC(=O)O)NC(=O)CCCCCCCCCCNC(=N)N)C(=O)O [11-guanidinoundecanoyl-L-aspartyl-L-valine] | 4.77 | – | 36 | – | –
CC(C)[C@H](NC(=O)[C@H](CC(=O)O)NC(=O)CCCCCCCCCCCNC(=N)N)C(=O)O [12-Guanidinododecanoyl-L-aspartyl-L-valine] | 5.15 | – | 36 | – | –
CC(C)[C@H](NC(=O)[C@H](CC(=O)O)NC(=O)CNC(=O)[C@@H](N)CCCCN)C(=O)O [L-Lysylglycyl-L-aspartyl-L-valine] (H-KGDV-OH) | 4.22 | < 4.60 | 8 | – | –
CC(C)[C@H](NC(=O)CNC(=O)CNC(=O)[C@@H](N)CCCNC(=N)N)C(=O)O [L-arginyl glycyl glycyl-L-valine] (H-RGGV-OH) | < 3.70 | < 4.00 | – | 10 | –
CC(C)[C@H](NC(=O)[C@H](CC(=O)O)NC(=O)[C@@H](N)CCCNC(=N)N)C(=O)O [L-arginyl-L-aspartyl-L-valine] (H-Arg-Asp-Val-OH) | < 3.70 | 4.00 | – | 49 | –
CC(C)[C@H](NC(=O)[C@H](C)NC(=O)CNC(=O)[C@@H](N)CCCNC(=N)N)C(=O)O [L-arginylglycyl-L-alanyl-L-valine] (H-RGAV-OH) | – | < 4.00 | – | 17.5 | inhibition at 50 µg/mL [1, 7]: < 50%
N=C(N)NCCC[C@H](N)C(=O)NCC(=O)N[C@@H](CC(=O)O)C(=O)OCc1ccccc1 [L-arginylglycyl-L-aspartic acid α-benzyl ester] | 4.60 | 4.85 | – | 96 | –
CC(C)[C@@H](C(=O)O)N(C)C(=O)[C@H](CC(=O)O)NC(=O)CNC(=O)[C@@H](N)CCCNC(=N)N [L-arginylglycyl-L-aspartyl-L-(N-methyl)-valine] (H-RGD[NMeV]-OH) | – | 3.80 | – | 30 | inhibition at 50 µg/mL [1, 7]: < 50%
CC(C)CNC(=O)[C@H](CC(=O)O)NC(=O)CNC(=O)[C@@H](N)CCCNC(=N)N [L-arginylglycyl-L-aspartyl-α-isobutylamide] | 4.58 | 5.44 | – | 89 | –
CC(C)[C@H](NC(=O)[C@H](CC(=O)O)NC(=O)CN(C)C(=O)[C@@H](N)CCCNC(=N)N)C(=O)O [L-arginylsarcosyl-L-aspartyl-L-valine] (H-R[Sar]DV-OH) | 4.85 | 4.85 | – | 92 | –
CC(C)[C@H](NC(=O)[C@H](CC(=O)O)NC(=O)CNC(=O)[C@@H](N)CCCN)C(=O)O [L-ornithylglycyl-L-aspartyl-L-valine] (H-[Orn]GDV-OH) | – | 4.82 | – | 80 | inhibition at 50 µg/mL [1, 7]: < 50%
CC(C)[C@H](NC(=O)[C@H](CC(=O)O)NC(=O)CNC(=O)CCCCN)C(=O)O [N-(5-Aminopentanoyl) glycyl-L-aspartyl-L-valine] (H-[Ava]GDV-OH) | 4.16 | < 4.19 | – | 67 | –
CC(C)[C@H](NC(=O)[C@H](CC(=O)O)NC(=O)CNC(=O)CCCCNC(=N)N)C(=O)O [N-(5-guanidinopentanoyl)glycyl-L-aspartyl-L-valine] | 6.15 | 5.64 | – | 92 | –
N=C(N)NCCCCC(=O)NCC(=O)N[C@@H](CC(=O)O)C(=O)NCCc1ccccc1 [N-(5-guanidinopentanoyl)glycyl-L-aspartylphenethylamide] | 4.70 | 5.68 | – | 86 | –
CC(C)C[C@@H](CCC(=O)O)NC(=O)[C@H](CC(=O)O)NC(=O)CCCCCCCCNC(=N)N [N-(9-guanidinononanoyl-L-aspartyl)-(R)-4-amino-4-isobutylbutyric acid] | 4.27 | < 4.60 | 13 | – | –
CC(C)[C@H](NC(=O)[C@H](CC(=O)O)NC(=O)Cn1nnnc1CCCCCNC(=N)N)C(=O)O [[5-(5'-Guanidinopentyl)Tetrazol-1-yl]-Acetyl-L-Aspartyl-L-Valine] | – | – | 40 | – | pIC50 ([1]; read-out: Inhibition of 125I-Fibrinogen Binding to Platelets IC50; 125I-fibrinogen 0.176 μmol/liter, thrombin-stimulated platelets): 5.66; pIC50 ([2]; read-out: Inhibition of Fibrinogen Mediated Platelet Aggregation IC50; fixed activated platelets, human fibrinogen 250 μg/ml): < 4.60
arg-gly-asp-ser | – | – | – | – | inhibiting thrombin-induced platelet aggregation (platelet aggregation): capable of inhibiting thrombin-induced platelet aggregation
gly-arg-gly-asp-ser | – | – | – | – | inhibiting thrombin-induced platelet aggregation (platelet aggregation): capable of inhibiting thrombin-induced platelet aggregation
